From US20040052836A1, “Pharmaceutical compositions containing at least one stable liposphere having an improved shelf life” (priority 2002, published 2004)
Counter-ions that a name gives are not always drawn.

Assays:
guinea pigs = assay: Guinea pig wheal anesthesia study (pin-prick); assay type: in vivo; details: subcutaneous 300 μL; 3% liposphere (p<0.043) or 0.5% bupivacaine HCl solution (p<0.008); 1-tailed test; FIG. 3
Protocol: Liposphere formulation containing bupivacaine (3%), tristearin (6%), and DMPC (0.75%) and the liposphere vehicle containing tristearin (6%) and DMPC (0.75%) were evaluated for their anesthesia activities in guinea pigs. The liposphere formulation and vehicle were prepared as described in Example 1. In addition, a solution of bupivacaine HCl (0.5%) and its vehicle (normal saline solution) were evaluated for comparison. In this example, adult guinea pigs were randomly assigned to one of two groups, with each group receiving two subcutaneous injections: one of vehicle and one of the test articles. Half of the animals in each group were given the vehicle on the left side and the test article on the right side. The other half were given the test article on the left side and the vehicle on the right. Injection volume was 300 μL. There were two injections given to each animal. Both groups consisted of eight animals, four of each group received an injection of the vehicle on the left side of the spine, and the remaining four animals received an injection of the vehicle on the right side. […] The “anesthetic action” (the ability of local anesthetics to block the skin reflex in guinea pigs) was determined using the “pin-prick” method. […] The ability of the test compound to block the twitch responses of the guinea pig to six probings with a carefully calibrated needle algesimeter was evaluated. […]

rats = assay: Rat thermal paw flick anesthesia study; assay type: in vivo; details: intraplantar injection 100 μL
Protocol: Liposphere containing bupivacaine (3%), tristearin (6%), and DMPC (0.75%) was tested for its local anesthetic activity in rats. Its activity was compared with that of bupivacaine HCL (3%) solution. The liposphere formulation was prepared as described in Example 1. Adult rats were given an intraplantar injection of 100 μL of either liposphere formulation or bupivacaine HCl solution. Animals were then individually placed into a Hargreaves “hotbox,” in which a beam of light, as a heat source, was focused on the plantar surface of the injected paw at various intervals after treatment. The latency for the rat to withdraw its paw was recorded, up to a maximum of 20 seconds. The earliest time point examined in these studies was 30 min. The latest time point was 120 min for animals treated with bupivacaine HCl solution (by which time latencies had returned to predrug baseline levels), and 1440 min for animals treated with liposphere formulation.

SMILES: CCCCN1CCCCC1C(=O)Nc1c(C)cccc1C (stereo not drawn) [bupivacaine HCl solution, bupivacaine HCl]
- duration of statistically significant anesthesia compared to vehicle (guinea pigs): up to 0.75 hours
- duration of anesthesia post injection (rats; 3% bupivacaine liposphere or 3% bupivacaine HCl solution, paw withdrawal latency, FIG. 2): up to 60 min
- time by which latencies had returned to predrug baseline levels (rats; bupivacaine HCl 3% solution): ≤ 120 min
